Entries after “also recorded” stand apart in the source; their conditions may differ. Where a name gives a salt, the structure may show the parent alone.
What was measured:
[1] = system: HSCs (CD150+CD34−LSK); test: Competitive transplantation of HSCs from dietary cohorts, repopulation capacity (peripheral blood chimerism); format: in vivo; details: HSCs from young mice; 2 weeks intervention; FIG. 14A
[2] = system: HSCs; test: HSC culture with NR pre-treatment followed by 3I, number of CD48−Sca1+ cells; format: cell-based; details: NR-treated (1 mM) HSCs from old mice; 3I 6 μM each; FIG. 12E
Excerpt: The NR treatment was continued on das 3 and 4. […] N=3 HSC cultures derived from 3 individual mice per group. […] Error bars depict SD.
(§1) To test the hypothesis that NAD(P) availability limits the potential of HSPCs from old mice to respond to changes in nutrient availability, freshly isolated HSCs from young and old mice were exposed to inhibitors of mitochondrial nutrient uptake.
For testing the response of HSPCs to the blocking of glycolysis or mitochondrial ATP synthesis, 2-DG (Sigma, D8375) or oligomycin A (Sigma, 75351) were used. For the inhibition of nutrient uptake into mitochondria, three inhibitors (3I) were used. BPTES (Sigma, SML0601) blocks […] uptake, Etomoxir (Sigma E1905) blocks Fatty acids uptake, and UK5099 (Sigma PZ0160) blocks pyruvate uptake. The final concentration of each inhibitor in the culture medium is 6 μM. Same amount of DMSO was used in the medium as control. For determination of cell number after NR treatment 500 HSCs from young (2-3 months) and old (22-24 months) were pre-incubated either with 1 mM NR (provided by Prof. Johan Auwerx Lab) or DMSO as control for 2 days followed by 2 days treatment with the inhibitors (BPTES, Etomoxir and UK5099, 6 μM each) or same amount of DMSO as control. The cells were then analyzed by BD LSR fortessa.

[3] = system: old mice; details: previous studies; cited from earlier work
[4] = system: CMPs; test: Seahorse basal oxygen consumption rate after NR pre-treatment followed by 3I; format: cell-based, mice; details: FIG. 12F
Description: (F) Basal oxygen consumption rate in CMPs from young (3-5 months, n=4) and old mice (22-24 months, n=4). Cells were either pretreated with 1 mM […] (NR) or DMSO (Con) for 12 h. This was followed by treatment for 12h in vitro to combination of 3 inhibitors of mitochondrial nutrient uptake (by BPTES=6 uM, Etomoxir=6 uM, UK5099=6 uM) or DMSO as control. The data were not normally distributed (Shapiro-Wilk test) and the Mann-Whitney test was used for the calculation of p-values.
as §1
For CMP and GMP 80,000 cells were used. For MPP 60,000 cells were used.

[5] = system: stress response genes in MPPs (CD34+Flt3−LSK); test: NanoString analysis of stress response genes in MPPs pre-treated in vitro with NR followed by 3I or vehicle; format: cell-based, mice
Description: (C,D) NanoString analysis on the expression of stress response genes was carried out on 10,000 MPPs (CD34^+Flt3^−LSK) from young (3-4 months, n=4) and old mice (22-24 months, n=4). MPPs were pre-treated in culture with 1 mM NR or DMSO (Con) for 12h followed by treatment with 31 or Vehicle (Veh: 0.4% DMSO) for 12h under continuation of NR or Veh treatment. (C,D) Volcano plots for the NanoString analysis.
(G,H) NanoString analysis on the expression of stress response genes was carried out on 10,000 MPPs (CD34^+Flt3^−LSK) from young (3-4 months, n=4) and old mice (22-24 months, n=4). MPPs were pre-treated in vitro with 1 mM NR or DMSO (Con) for 12h followed by treatment with 31 or Vehicle (Veh: 0.4% DMSO) for 12h. The NR treatment was continued for the time window of 12-24h. (G, H) Volcano plots on the NanoString analysis of stress response genes.
as §1
Measuring of RNA expression by NanoString was done according to our previous publication (Chen et al., 2019) and according to manufacturer protocol (NanoString technologies). In brief, 1×10^4 cells were lysed in 2 μL of lysis/binding solution (Applied Biosystems, 8500G14). The cell lysate was then used for hybridization reaction as following: 2 μL of cell lysate was mixed with 5 μL of nCounter hybridization buffer (NanoString), 2 μL of Core Tagset, 2 μL of extension Tagset, 0.5 μL of […] Probe A working pool, 0.5 μL of […] probe A extension Pool, 0.5 μL of 3 nm Probe B working pool, and 0.5 μL of 3 nM Probe B extension pool (from IDT technologies). 2 μL of Nuclease-free water was added to each reaction to reach a final volume of 15 μL. The reaction mixture was prepared in Strip tubes (from NanoString technologies). Then it was incubated at 67° C. using thermal cycler (Masterycler from Eppendorf) for 16 h. Afterward, the Nanostring chemistry was processed automatically using nCounter prep-station 5s (NanoString technologies) according to manufacturer protocol. Directly after the run, the nCounter Cartridge was loaded into nCounter digital analyzer 5s (NanoString technologies). For NanoString analysis on young and old mice exposed to DR or AL food, freshly FACS-Sorted MPPs (CD34^+Flt3^− LSK) were used. […] Cells from NR treatment and DMSO were divided into 2 halves and further treated with 3I (6 μM each) or DMSO as control. The cells were harvested for NanoString analysis as described above. Data analysis was done after background correction using nSolver advanced analysis software (v.4) and (R software v 3.3.2.). The following housekeeping genes were used for normalization: ActB, B2M, Gapdh, Gusb, Hprt, PGK1, Polr1b, Polr2a, Ppia, Rpl19, Sdha, and Tbp. Heatmaps and volcano plots was done using GraphPad prism software version 8.

[6] = system: 22-24 months old female mice; test: Lifespan (Kaplan Meier survival) of old mice under long-term dietary treatments; format: in vivo
Description: (B) Kaplan Meier survival analysis in cohorts of mice that were exposed to DR-alone, NR-alone, or NR/DR co-treatment compared to AL-feeding. Dietary interventions were started at the age of 22-24 months and continued over lifetime. […] P-values were calculated using Mantel-Cox test. The p-values that are shown next to the intervention naming refer to the comparison of the intervention to the AL-diet group.
To test effects of these dietary intervention on organism lifespan, 4 cohorts of 22-24 months old female mice (n=14-15 mice per group) were exposed to long-term treatments (until the end of life or the occurrence of humane endpoints).

[7] = system: stress response genes in HSCs; test: NanoString mRNA analysis of stress response genes in freshly isolated HSCs from dietary cohorts; format: in vivo, mice; details: 2 weeks, listed as NR-alone
Excerpt: (§2) FIG. 13 (A-J) Young (2-3 month old) and old (22-24 month old) mice were exposed for 2 weeks to the indicated diet: ad libitum diet (AL), dietary restriction (DR=CRD), NAD-precursor supplementation (=NR), NR/DR—combination of NR plus DR.
(G-K) NanoString mRNA analysis of stress response genes in freshly-isolated HSCs from young (Y) and old (O) mice that were exposed to ad libitum (AL) or dietary restriction (DR diet for 2 weeks) of NAD-precursor treatment (NR) or a combination of NR plus DR (=NR/DR). The dotted lines represent the q-value of 0.05.
To analyze whether the NR/DR-mediated re-installment of mitochondrial metabolic plasticity in HSCs from old mice could rescue the induction of metabolic stress signals, freshly isolated HSCs from 2-week dietary cohorts were analyzed with the same NanoString assay as described above.
Measuring of RNA expression by NanoString was done according to our previous publication (Chen et al., 2019) and according to manufacturer protocol (NanoString technologies). In brief, 1×10^4 cells were lysed in 2 μL of lysis/binding solution (Applied Biosystems, 8500G14). […]

[8] = system: CMPs; test: Respirometry (OCR) of freshly isolated CMPs from mice fed NR, DR or NR/DR; format: in vivo; details: 2 weeks
Excerpt: as §2
(A-C) Respirometry analysis of the OCR of freshly-isolated CMPs in: (A) young and (B) old mice; (C) Quantification of OCR at basal level of the indicated groups as measured in (A,B, before oligomycin-application, marked by 0). N=4-6 mice per group. The Data were normally distributed (Shapiro-Wilk test) after log transformation. Error bars represent SD. P-values were calculated on average data of 4 time points using 2-way ANOVA with Tukey's multiple comparisons test on log-transformed data.
To experimentally test whether mitochondrial enhancement could re-empower DR (=CRD) in old mice, young and old mice were exposed to NAD+ supplementation by feeding of nicotinamide riboside (NR). In addition, the mice were exposed for 2 weeks to DR (=CRD), starting 1 week after NR pre-feeding, or continuous AL feeding.

[9] = system: CMPs; test: OCR of CMPs in glucose-restricted medium from old mice fed CRMs with or without NAD-precursor; format: in vivo; details: old mice (22-24 months), 2 weeks, glucose depletion, FIG. 15
Description: FIG. 15—Old (22-24 months old) mice were exposed for 2 weeks to the indicated diet: ad libitum (AL), Metformin (met), NAD-precursor (NR), NRM—combination of NR plus Metformin. Curves show respirometry analysis of the OCR of freshly isolated CMPs. The OCRs were continuously measured for 12h in freshly isolated CMPs grown in glucose-restricted medium (1 mM=R).
To test whether NAD precursor supplementation would cooperate with specific CRMs that mimic a certain sub-pathway induced by CRD, different classes of CRMs were employed. We tested the combined effects of NAD supplementation with • (a) Metformin—a CRM, which induces mitochondrial stress • (b) Pterostilbene—a CRM which induces Sirtuin-dependent stress responses including autophagy • (c) Spermidine—a CRM, which induces autophagy (ad ownstream target of sirtuins (see above)
Old mice (22-24 months) were fed with CRMs (a-c) with or without combination with NAD-precursor supplementation for 2 weeks before analysis. Freshly isolated hematopoietic cells (CMPs) were tested for a rescue in responsiveness to activate mitochondria in response to glucose depletion—a marker of metabolic improvement induced by CRD in young mice or by a combination of NAD precursor supplementation plus CRD in old mice. […]

[10] = system: female Drosophila; details: 400 μM, high-fat diet; cited from earlier work
[11] = Y.Con + 3I versus O.NR + 3I, MPPs, 12 h pre-treatment with NR

In the case of NC(=O)c1ccc[n+]([C@@H]2O[C@H](CO)[C@@H](O)[C@H]2O)c1 [NR, Nicotinamide riboside], the “repopulation capacity of HSCs” value [1] is given as “increased the repopulation capacity”, the “response to 3I-treatment: cell proliferation” value [2] is given as “suppression of cell proliferation” and the “increase in lifespan when applied to old mice” value [3] is given as 6.9%. For the same molecule, the “response to 3I-treatment: oxidative metabolism” value ([4]; NR-treated (1 mM) cells from old mice, 3I 6 uM each) was “reduction of oxidative metabolism”, the “oxidative metabolism (basal oxygen consumption rate)” value ([4]; cells from old mice, 1 mM NR) was “rescued oxidative metabolism to a similar level as observed in HSCs from young mice” and the “IDH1-mRNA LogZFC” value [5, 11] was −2.62. The “Ino1-mRNA LogZFC” value [5, 11] was −1.78, the “Myh9-mRNA LogZFC” value [5, 11] was −2.45 and the “NRas-mRNA LogZFC” value [5, 11] was −2.16. For the same molecule, the “Pds5A-mRNA LogZFC” value [5, 11] was −3.08, the “atp5a1-mRNA LogZFC” value [5, 11] was 1.11 and the “unspliced XBP1-mRNA LogZFC” value [5, 11] was 2.56. The “changes in the transcription of stress response genes in old vs. young cells” value ([5]; cells exposed to 3I-treatment, 1 mM NR, FIG. 12H) was “reverted changes in the transcription of stress response genes”, the “pre-existing, age-related changes in transcription of stress response genes” value ([5]; old vs. young cells not exposed to 3I-treatment, 1 mM NR, FIG. 11C-E) was “no significant effects” and the “increase in median life expectancy compared to AL” value ([6]; late-life treatment of old mice, this study) was 10%. The “lifespan compared to AL-fed control mice” value ([6]; treatment started at 22-24 months, continued over lifetime, FIG. 14B) was “slight increases in lifespan”, the “induction of metabolic stress signals (stress response genes)” value ([7]; HSCs from young mice, FIG. 13G) was “induction of health-promoting stress response genes in young mice; also recorded: induced metabolic stress signals” and the “induction of metabolic stress signaling (stress response genes)” value ([7]; HSCs of old mice, FIG. 13I,K) was “neither of the single treatments, NR-alone (FIG. 13I) or DR-alone (FIG. 13J) was able to induce metabolic stress signaling”. The “mitochondrial respiration compared to AL-fed mice” value ([8]; old mice, FIG. 13B,C) was “neither of the single treatments was sufficient to induce mitochondrial respiration” and the “mitochondrial respiration compared to AL-fed mice” value ([8]; young mice, FIG. 13A,C) was “significant increases in mitochondrial respiration”.

With CN(C)C(=N)N=C(N)N [metformin, Metformin-Hydrochlorid, reference compound] the “synergistic effects of NAD precursor supplementation combined with the CRM on inducing mitochondria activity (OCR)” value [9] was “synergistic effects on inducing mitochondria activity”.

In the case of Oc1ccc(C=Cc2cc(O)cc(O)c2)cc1 [resveratrol, Resveratrol], the “extension of the lifespan” value [10] is listed as 10%-15%.
